Laboratory results reported in BigSolDB 2.1.

CNC(=O)c1cc(Oc2ccc(NC(=O)Nc3ccc(Cl)c(C(F)(F)F)c3)c(F)c2)ccn1
solubility (mole fraction)
Conditions	278.15 K	283.15 K	288.15 K	293.15 K	298.15 K	303.15 K	308.15 K	313.15 K
in acetone	0.0014	0.00173	0.00199	0.00247	0.00323	0.00375	0.00443	0.00526
in acetonitrile	0.00014	0.000162	0.000168	0.000203	0.000248	0.000299	0.000381	0.000492
in ethanol	0.000641	0.000677	0.000739	0.000865	0.000911	0.0011	0.00126	0.00145
in isopropanol	0.000657	0.000679	0.000698	0.000769	0.000918	0.00109	0.00137	0.00161
in methanol	0.000315	0.000351	0.00041	0.000422	0.000475	0.000581	0.000689	0.000797
in n-propanol	0.000701	0.000769	0.000814	0.000908	0.00099	0.0012	0.00147	0.00172
